Values quoted from earlier work as cited in publication PMC4499460 (The Journal of organic chemistry, 2015).

Details: in 1 N H2SO4

## C=C[C@H]1CN2CC[C@H]1C[C@H]2[C@H](O)c1ccnc2ccc(OC)cc12.O=S(=O)(O)O [quinine bisulfate]
  ϕf of quantum yield reference: 0.54
